IC50 and IC90 data for 36 compounds are collected here from ChEMBL document CHEMBL4483862, “Open-source discovery of chemical leads for next-generation chemoprotective antimalarials” (2018).

The test deals with Plasmodium berghei. The test can be described thus: Luciferase/luciferin-expressing antifolate-resistant parasites were used to infect a culture of HepG2 cells that were pre-incubated with compounds. Infected hepatocytes emit light due to the luciferase reaction. Assay results are presented as the percent inhibition of light emission compared to control. […]. The format is functional. Particulars: sporozoite; for IC90: read-out: LUCIFERASE INFECTION ASSAY - IC90.

One may read the IC50 as the concentration needed to halve the response being measured. By IC90 is commonly meant the concentration at which the effect reaches the 90% level.

In the case of `COc1cc2c(cc1OC)C(c1ccccc1C(F)(F)F)CC(=O)N2` (configuration not stated), the IC90 was over 9.39 µM. Besides, where the note is “PBLUC_HILL_SLOPE 2.57, PBLUC_R_SQUARED 0.0741, read-out: LUCIFERASE INFECTION ASSAY - IC50”, the IC50 was 7.98 µM.
With `Cc1nnsc1C(=O)Nc1ccc(-n2nc(C(F)(F)F)cc2C(F)(F)F)cc1`, the concentration for an effect of 90% (IC90) was over 7.83 µM. The IC50 (PBLUC_HILL_SLOPE 2.63, PBLUC_R_SQUARED 0.209, read-out: LUCIFERASE INFECTION ASSAY - IC50) came out at 5.65 µM.
Consider `Cc1cc(O)nc(N/N=C/c2c(C)nn(-c3ccccc3Cl)c2Cl)n1`, for which the concentration for an effect of 90% (IC90) came to 2.19 µM. Besides, the IC50 (PBLUC_HILL_SLOPE 2.61, PBLUC_R_SQUARED 0.512, read-out: LUCIFERASE INFECTION ASSAY - IC50) was 0.943 µM.
Consider `CN(C)c1ccc(-c2cnc3cnc(-c4ccc(C(=O)NCCO)cc4)cn23)cc1`, for which the IC90 was over 8.22 µM. In addition, the IC50 (PBLUC_HILL_SLOPE 2.64, PBLUC_R_SQUARED 0.078, read-out: LUCIFERASE INFECTION ASSAY - IC50) came out at 6.1 µM.
For the compound `Cc1cc(CSc2ccccc2C(=O)NNC(=O)c2ccccc2O)on1`, the concentration for an effect of 90% (IC90) is over 10 µM. Moreover, the IC50 (PBLUC_HILL_SLOPE 2.63, PBLUC_R_SQUARED 0.786, read-out: LUCIFERASE INFECTION ASSAY - IC50) was 7.42 µM.
`NC(=O)Cc1ccc(C(=O)CSc2ncnc3sc(-c4ccccc4)cc23)s1`: the IC90 is over 10 µM. In addition, for the setting “PBLUC_HILL_SLOPE 2.63, PBLUC_R_SQUARED 0.33, read-out: LUCIFERASE INFECTION ASSAY - IC50”, the IC50 worked out at 7.38 µM.
In the case of `CCn1nc(C(=O)NCc2ccc(OC)cc2)c2c1CCN(C(=O)c1cc(C)n[nH]1)C2`, the IC90 was 3.69 µM. Further, the IC50 (PBLUC_HILL_SLOPE 2.57, PBLUC_R_SQUARED 0.68, read-out: LUCIFERASE INFECTION ASSAY - IC50) was found to be 1.57 µM.
For the compound `COc1ccc(OC)c(-c2csc(NC(=O)c3[nH]c(C)c(C(C)=O)c3C)n2)c1`, the IC90 was over 10 µM. For the setting “PBLUC_HILL_SLOPE 2.64, PBLUC_R_SQUARED 0.217, read-out: LUCIFERASE INFECTION ASSAY - IC50”, the IC50 is 5.92 µM.
For the compound `Cc1cc(Nc2ccc(C(c3ccc(C(=O)O)cc3)c3ccc(Nc4cc(C)nn4-c4ccccc4)nc3Cl)c(Cl)n2)n(-c2ccccc2)n1`, the IC90 is over 10 µM. Further, the IC50 (PBLUC_HILL_SLOPE 2.61, PBLUC_R_SQUARED 0.324, read-out: LUCIFERASE INFECTION ASSAY - IC50) worked out at 6.2 µM.
As for `CN(C)S(=O)(=O)c1cc(C(=O)Nc2nc(-c3ccccc3)cn2/N=C/c2ccccc2)ccc1Cl`, the IC90 is over 10 µM. For the same compound, the IC50 (PBLUC_HILL_SLOPE 2.59, PBLUC_R_SQUARED 0.747, read-out: LUCIFERASE INFECTION ASSAY - IC50) stood at 5.75 µM.
On to `COc1cc(OC)cc(-c2cc3c(Nc4cccc(S(C)(=O)=O)c4)nccc3n2C)c1`, for which the IC90 was over 10 µM. In addition, the IC50 (PBLUC_HILL_SLOPE 2.63, PBLUC_R_SQUARED 0.0611, read-out: LUCIFERASE INFECTION ASSAY - IC50) came to 6.92 µM.
As to `CCOC(=O)N1CCC(Nc2ncnc3c2oc2ccccc23)CC1`, the IC90 was over 10 µM. Further, under “PBLUC_HILL_SLOPE 2.64, PBLUC_R_SQUARED 0.787, read-out: LUCIFERASE INFECTION ASSAY - IC50”, the concentration for half-maximal inhibition (IC50) amounted to 6.72 µM.
`CNc1nc2cnc(Nc3ccc(C(C)C)cc3)cc2n1Cc1ccc(OC)c(OC)c1`: the IC90 was over 10 µM. In addition, the IC50 (PBLUC_HILL_SLOPE 2.59, PBLUC_R_SQUARED 0.223, read-out: LUCIFERASE INFECTION ASSAY - IC50) stood at 6.81 µM.
For the compound `CCCCCc1ccc(-c2nnc(SCC(=O)c3ccccc3)[nH]2)cc1`, the IC90 was over 9.03 µM. Besides, under “PBLUC_HILL_SLOPE 2.65, PBLUC_R_SQUARED 0.501, read-out: LUCIFERASE INFECTION ASSAY - IC50”, the IC50 is over 9.03 µM.
In the case of `CN(C)CCCCCCOc1ccc2c(c1)CCC1C2CCC2(C)C(=O)CCC12` (configuration not stated), the IC90 was over 8.3 µM. The IC50 (PBLUC_HILL_SLOPE 2.65, PBLUC_R_SQUARED 0.355, read-out: LUCIFERASE INFECTION ASSAY - IC50) was 3.69 µM.
For the compound `Cc1cccc(C)c1N1C(=O)C=CC1=O`, the IC90 is over 16.4 µM. For the same compound, the IC50 (PBLUC_HILL_SLOPE 2.64, PBLUC_R_SQUARED 0.435, read-out: LUCIFERASE INFECTION ASSAY - IC50) was over 16.4 µM.
`CNc1nc2cnc(Nc3cccc(OC(F)(F)F)c3)cc2n1-c1cc(OC)c(OC)c(OC)c1`: the IC90 was over 10 µM. Where the note is “PBLUC_HILL_SLOPE 2.6, PBLUC_R_SQUARED 0.253, read-out: LUCIFERASE INFECTION ASSAY - IC50”, the IC50 was found to be 6.55 µM.
On to `CC1=C/C(=N\NC(=O)c2ccc(Br)cc2)CC(C)(C)C1`, for which the 90% effect concentration (IC90) is over 10 µM. Further, the IC50 (PBLUC_HILL_SLOPE 2.58, PBLUC_R_SQUARED 0.715, read-out: LUCIFERASE INFECTION ASSAY - IC50) amounted to 6.68 µM.
For `CCc1nn2c(NCc3cccnc3)cc(C)nc2c1-c1ccccc1`, the IC90 was over 9.61 µM. For the same compound, the IC50 (PBLUC_HILL_SLOPE 2.62, PBLUC_R_SQUARED 0.301, read-out: LUCIFERASE INFECTION ASSAY - IC50) is 7.32 µM.
In the case of `COc1cccc(Cn2nc(C(=O)NC3CC3)c3c2CCN(Cc2cc4c(cc2Cl)OCO4)C3)c1`, the IC90 was over 6.67 µM. The IC50 (PBLUC_HILL_SLOPE 2.62, PBLUC_R_SQUARED 0.537, read-out: LUCIFERASE INFECTION ASSAY - IC50) worked out at 3.5 µM.
Take `C=C(C)c1cccc(C(C)(C)NC(=O)NNc2ccnc3cc(Cl)ccc23)c1`: the IC90 was found to be 9.06 µM. Besides, the IC50 (PBLUC_HILL_SLOPE 2.57, PBLUC_R_SQUARED 0.548, read-out: LUCIFERASE INFECTION ASSAY - IC50) was 3.86 µM.
With `Cc1ccc(C(=O)Nc2nc3ccccc3[nH]2)cc1NC(=O)c1ccco1`, the 90% effect concentration (IC90) is over 10 µM. For the same compound, the IC50 (PBLUC_HILL_SLOPE 2.56, PBLUC_R_SQUARED 0.483, read-out: LUCIFERASE INFECTION ASSAY - IC50) came to 4.68 µM.
Turning to `Cc1cc(NC(=O)c2ccc(-c3cccc4ccccc34)s2)no1`, the IC90 was over 10 µM. Also, the IC50 (PBLUC_HILL_SLOPE 2.6, PBLUC_R_SQUARED 0.519, read-out: LUCIFERASE INFECTION ASSAY - IC50) turned out to be 5.02 µM.
Regarding `CCN(CC)S(=O)(=O)c1ccc(N/N=C/c2c(-c3ccccc3)[nH]c3ccccc23)nc1`, the IC90 is over 10 µM. Besides, for the setting “PBLUC_HILL_SLOPE 2.64, PBLUC_R_SQUARED 0.392, read-out: LUCIFERASE INFECTION ASSAY - IC50”, the IC50 worked out at 4.46 µM.
Consider `Cc1cc([N+](=O)[O-])cc[n+]1[O-]`, for which the IC90 was over 21.4 µM. Moreover, the IC50 (PBLUC_HILL_SLOPE 2.57, PBLUC_R_SQUARED 0.305, read-out: LUCIFERASE INFECTION ASSAY - IC50) stood at 14.6 µM.
With `O=C(c1[nH]nc2ccccc12)N1CCN(S(=O)(=O)c2cccs2)CC1`, the IC90 is over 10 µM. Further, for the setting “PBLUC_HILL_SLOPE 2.58, PBLUC_R_SQUARED 0.457, read-out: LUCIFERASE INFECTION ASSAY - IC50”, the IC50 was 7.61 µM.
On to `COc1ccc(C(N)=O)c(OCCC23CC4CC(CC(C4)C2)C3)c1`, for which the IC90 was over 10 µM. Besides, under “PBLUC_HILL_SLOPE 2.6, PBLUC_R_SQUARED 0.547, read-out: LUCIFERASE INFECTION ASSAY - IC50”, the IC50 was 6.07 µM.
For `CN1CCN(c2ccc(Cl)cc2NC(=O)Cn2c3ccccc3c(=O)c3ccccc32)CC1`, the IC90 was over 10 µM. For the same compound, the IC50 (PBLUC_HILL_SLOPE 2.6, PBLUC_R_SQUARED 0.61, read-out: LUCIFERASE INFECTION ASSAY - IC50) was determined as 4.43 µM.
Regarding `Cc1cc(C(=O)N/N=C/c2c(-c3ccccc3)nc3ccccn23)c(C)o1`, the IC90 was over 10 µM. Under “PBLUC_HILL_SLOPE 2.6, PBLUC_R_SQUARED 0.44, read-out: LUCIFERASE INFECTION ASSAY - IC50”, the IC50 came out at 6.44 µM.
Turning to `O=C(Nc1ccc(OC(F)(F)F)cc1)Nc1cc(-c2ccco2)n[nH]1`, the IC90 was over 9.37 µM. Besides, under “PBLUC_HILL_SLOPE 2.58, PBLUC_R_SQUARED 0.157, read-out: LUCIFERASE INFECTION ASSAY - IC50”, the IC50 was found to be 7.52 µM.
With `Cc1nn(-c2ccc(F)cc2)c2ncc(C(=O)Nc3nc(C4CC4)cs3)cc12`, the IC90 was found to be 4.45 µM. Further, the IC50 (PBLUC_HILL_SLOPE 2.65, PBLUC_R_SQUARED 0.58, read-out: LUCIFERASE INFECTION ASSAY - IC50) is 1.94 µM.
For `O=C(c1cc(C2=NNC(=Nc3ccc(Cl)cc3)SC2)c[nH]1)N1CCCC1`, the IC90 was over 10 µM. For the same compound, where the note is “PBLUC_HILL_SLOPE 2.6, PBLUC_R_SQUARED 0.441, read-out: LUCIFERASE INFECTION ASSAY - IC50”, the concentration for half-maximal inhibition (IC50) was 5.46 µM.
Consider `FC(F)(F)c1ccc(Nc2n[nH]c(=S)s2)cc1`, for which the IC90 is over 11.9 µM. Also, for the setting “PBLUC_HILL_SLOPE 2.58, PBLUC_R_SQUARED 0.163, read-out: LUCIFERASE INFECTION ASSAY - IC50”, the IC50 is 8.08 µM.
On to `CC(C)Cn1c(-c2cccs2)nc2c(c(=O)c3ccccc3n2C)c1=O`, for which the IC90 was found to be 8.59 µM. Also, the IC50 (PBLUC_HILL_SLOPE 2.62, PBLUC_R_SQUARED 0.237, read-out: LUCIFERASE INFECTION ASSAY - IC50) turned out to be 3.71 µM.
In the case of `CCOc1ccc(CN2CCN(C(=O)Cc3c(C)nn(C)c3C)CC2)cc1`, the IC90 is over 10 µM. For the same compound, where the note is “PBLUC_HILL_SLOPE 2.6, PBLUC_R_SQUARED 0.21, read-out: LUCIFERASE INFECTION ASSAY - IC50”, the IC50 was over 10 µM.
With `Cc1sc2nc(CSc3ccccc3)nc(N3CCN(CC(=O)NC4CC4)CC3)c2c1C`, the IC90 was over 10 µM. Also, the IC50 (PBLUC_HILL_SLOPE 2.61, PBLUC_R_SQUARED 0.67, read-out: LUCIFERASE INFECTION ASSAY - IC50) was 5.13 µM.
